Literature values as cited in US8911774B2, “Topical composition for anti-aging skin treatment using dual DNA repair mechanism and method of use” (Cellhealth Technologies Ltd., priority 2009, dated 2014).

Assays:
[1] = test system: skin damage; details: shown clinically
[2] = test system: tyrosinase
[3] = test system: 8-OHdG
[4] = test system: p53
[5] = test system: melanin synthesis; details: at a concentration of 0.1%

Compound: Tocotrienol
- strength and effectiveness at repairing skin damage relative to regular Vitamin E [1]: 40-50 times

Compound: CC1(C)C=Cc2c(ccc3c2OC[C@@H](c2ccc(O)cc2O)C3)O1 [Glabridin]
- tyrosinase-inhibition activity relative to Kojic acid [2]: 25 times
- tyrosinase-inhibition activity relative to ascorbic acid [2]: 75 times

Compound: CCCCCCCCC(CCCCCC)C(=O)OC[C@H](OC(=O)C(CCCCCC)CCCCCCCC)[C@H]1OC(=O)C(OC(=O)C(CCCCCC)CCCCCCCC)=C1OC(=O)C(CCCCCC)CCCCCCCC (stereo partly drawn) [tetrahexyldecyl ascorbate]
- 8-OHdG induced by UV-A radiation [3]: decreases
- p53 expression induced by UV-B radiation [4]: decreases
- reduction of melanin synthesis [5]: 80%
